Residues, ends and D or L forms follow the SMILES beside them.

The results in this text go back to BindingDB's records for doi:10.1016/j.bmcl.2015.09.044 (Keio University, 2015).

This assay is described as follows: Inhibition of M-CSF/sRANKL-induced mouse BMDM differentiation into osteoclast after 72 hrs by TRAP staining-based microscopic analysis.

In turn, `C#CCCC/C=C(\C)C(=O)N(C)[C@H](C(=O)N(C)[C@H](C(=O)N(C)[C@H](C(=O)N(C)[C@H](C(=O)N1CCC[C@H]1C(=O)N1CCC[C@H]1C(=O)CC)C(C)C)C(C)C)[C@@H](C)CC)[C@@H](C)CC` (HELM PEPTIDE1{[C#CCCC/C=C(\C)C(=O)[*:2]].[meI].[meI].[meV].[meV].P.[CCC(=O)[C@@H]1CCCN1[*:1]]}$$$$V2.0) returned an IC50 of 0.78 µM. This lies in the sub-micromolar range.

The term IC50 denotes the midpoint of a concentration-inhibition curve.
